Data reported in patent US9555038B2, “Heterocycle-substituted tetracyclic compounds and methods of use thereof for the treatment of viral diseases” (Merck Sharp & Dohme Corp., priority 2013, dated 2017).
pIC50: −log10 of the molar value. Read-outs that look alike come from different tables or passages of the source.

What was measured:
HCV replicon 1A = assay: Cell-based HCV Replicon Assay A, replicon 1A
Method in brief: (§1)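 Replicon cells seeded at 2000 cells/well with compound, 10 serial dilutions starting at 333.3 nM to 1.667 nM, 0.5% DMSO, 5% FBS, harvested on day 3. Replicon RNA measured by multiplex TaqMan RT-PCR with cyclophilin as endogenous control, quantified from standard curves of Ct vs log ng RNA.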

HCV replicon 2B = assay: Cell-based HCV Replicon Assay A, replicon 2B; conditions: for IC50: Hepatitis C virus, read-out: 2B IC50 (nM), replicon 2B
Method in brief: as §1

HCV replicon 1AQ30D = assay: Cell-based HCV Replicon Assay B, replicon 1AQ30D; conditions: for IC50: Hepatitis C virus, read-out: 1A Q30D IC50 (nM), replicon 1AQ30D
Procedure: (§2) In an alternate assay (“Replicon Assay B”), 1000 cells were seeded per well in a 384-well collagen coated black plate from Greiner bio-one (Cat #781946) in 5% FBS. Inhibitors of this invention were added at 24 h post-seeding, and the plates were incubated for 3 days. Cells were subsequently lysed with Qiagen lysis buffer (Cat #1062731) to extract the RNA. HCV replicon RNA level was measured by real-time PCR using the RNA-to-CT kit from Applied Biosystem (Cat #4392656) and genotype-specific primers and probes. The amplicon was located within NS5B. The sequence of the PCR primers are as follows: 5B.2F, ATGGACAGGCGCCCTGA (SEQ. ID NO. 1); 5B.2R, […] (SEQ. ID NO. 2); the probe sequence was FAM-labeled CACGCCATGCGCTGCGG (SEQ. ID NO. 3). To detect genotype 1A the primer 1A F, TGCGGAACCGGTGAGTACA and 1A R, […] were used; the probe sequence was FAM-[…].
(§3) The real-time RT-PCR reactions were run on ABI PRISM 7900HT or Viia7 Sequence Detection System using the following program: 48° C. for 30 minutes, 95° C. for 10 minutes, 40 cycles of 95° C. for 15 sec, 60° C. for 1 minutes. The 50% effective concentration (EC50) was the drug concentration necessary to achieve an increase in the cycle threshold (CT) of 1 over the projected baseline CT.
(§4) Data was obtained for various compounds of the present invention using the methods described in the Example above, and is presented in the table immediately below. Data for replicons 1A, 1AY93H and 2B were obtained using Replicon Assay A and data for replicons 1AQ30D and 1B were obtained using Replicon Assay B.

HCV replicon 1B = assay: Cell-based HCV Replicon Assay B, replicon 1B
Procedure: as §2, §3, §4

HCV replicon 1AY93H = assay: Cell-based HCV Replicon Assay A, replicon 1AY93H; conditions: for IC50: Hepatitis C virus, read-out: 1A Y93H IC50 (nM), replicon 1AY93H
Method in brief: as §1

[1] = read-out: 1A Y93H IC50, replicon 1AY93H
[2] = read-out: 1A Q30D IC50, replicon 1AQ30D
[3] = replicon 1AY93H, read-out: 1A Y93H IC50

| SMILES | pIC50 (HCV replicon 1B; Hepatitis C virus) | pIC50 (HCV replicon 2B; read-out: 2B IC50, replicon 2B) | pIC50 (HCV replicon 1AY93H; [1]) | pIC50 (HCV replicon 1B) | pIC50 (HCV replicon 1A) | other results |
| --- | --- | --- | --- | --- | --- | --- |
| COC(=O)N[C@H](C(=O)N1CCC[C@H]1c1ncc(-c2cc(F)c3c(c2)OC(c2cnc(-c4cccnc4)s2)n2c-3cc3cc(-c4cnc([C@@H]5CCCN5C(=O)[C@@H](NC(=O)OC)C(C)C)[nH]4)ccc32)[nH]1)C(C)C (mixture of isomers) [Compound 422] | 10.82 |  |  |  |  | pIC50 (HCV replicon 1A; Hepatitis C virus): 10.68; IC50 (HCV replicon 2B): 35.2 nM; IC50 (HCV replicon 1AQ30D): 1.67 nM |
| COC(=O)N[C@H](C(=O)N1CCC[C@H]1c1ncc(-c2cc(F)c3c(c2)OC(c2cnc(C4(C)CCOCC4)s2)n2c-3cc3cc(-c4cnc([C@@H]5CCCN5C(=O)[C@@H](NC(=O)OC)C(C)C)[nH]4)ccc32)[nH]1)C(C)C (mixture of isomers) [Compound 456] | 11.57 |  |  |  |  | IC50 (HCV replicon 2B): 0.316 nM; IC50 (HCV replicon 1AQ30D): 0.559 nM; IC50 (HCV replicon 1AY93H): 0.021 nM |
| COCc1ncc(C2Oc3cc(-c4cnc([C@@H]5CCCN5C(=O)[C@@H](NC(=O)OC)C(C)C)[nH]4)cc(F)c3-c3cc4cc(-c5cnc([C@@H]6CCCN6C(=O)[C@@H](NC(=O)OC)C(C)C)[nH]5)ccc4n32)s1 (single isomer, unassigned) [Compound 18] |  | 10.80 | 11.16 | 12.00 |  | IC50 (HCV replicon 1AQ30D): 0.072 nM |
| COC(=O)N[C@H](C(=O)N1CCC[C@H]1c1ncc(-c2cc(F)c3c(c2)OC(c2cnc(C4CC4)s2)n2c-3c(F)c3cc(-c4cnc([C@@H]5CCCN5C(=O)[C@@H](NC(=O)OC)C(C)C)[nH]4)ccc32)[nH]1)C(C)C (single isomer, unassigned) [Compound 21] | 11.40 | 10.92 | 10.75 |  |  | IC50 (HCV replicon 1AQ30D): 0.494 nM |
| COC(=O)N[C@H](C(=O)N1CCC[C@H]1c1ncc(-c2cc(F)c3c(c2)OC(c2ncc(-c4ccc(C#N)cc4)s2)n2c-3cc3cc(-c4cnc([C@@H]5CCCN5C(=O)[C@@H](NC(=O)OC)C(C)C)[nH]4)ccc32)[nH]1)C(C)C (single isomer, unassigned) [Compound 44] |  | 10.27 | 9.99 | 11.70 |  | pIC50 (HCV replicon 1AQ30D; [2]): 9.11 |
| COC(=O)N[C@H](C(=O)N1CCC[C@H]1c1ncc(-c2cc(F)c3c(c2)OC(c2cnc(Oc4ccc(F)cc4)s2)n2c-3cc3cc(-c4cnc([C@@H]5CCCN5C(=O)[C@@H](NC(=O)OC)C(C)C)[nH]4)ccc32)[nH]1)C(C)C (single isomer, unassigned) [Compound 49] | 11.70 | 11.70 |  |  |  | pIC50 (HCV replicon 1A; Hepatitis C virus): 12.00; pIC50 (HCV replicon 1AQ30D; [2]): 10.54 |
| COC(=O)N[C@H](C(=O)N1CCC[C@H]1c1ncc(-c2cc(F)c3c(c2)OC(c2cnc(Oc4ccc(F)cc4)s2)n2c-3cc3cc(-c4cnc([C@@H]5CCCN5C(=O)[C@@H](NC(=O)OC)C(C)C)[nH]4)ccc32)[nH]1)C(C)C (single isomer, unassigned) [Compound 50] |  | 9.80 | 9.92 | 12.00 |  | pIC50 (HCV replicon 1AQ30D; [2]): 8.91 |
| COC(=O)N[C@H](C(=O)N1CCC[C@H]1c1ncc(-c2cc(F)c3c(c2)OC(c2nc4c(s2)CCCC4)n2c-3cc3cc(-c4cnc([C@@H]5CCCN5C(=O)[C@@H](NC(=O)OC)C(C)C)[nH]4)ccc32)[nH]1)C(C)C (single isomer, unassigned) [Compound 88] |  |  |  |  | 11.55 | pIC50 (HCV replicon 1AQ30D; [2]): 9.38 |
| COC(=O)NC(C(=O)N1CCC[C@H]1c1ncc(-c2ccc3c(c2)cc2n3C(c3cnc(C4(C)CCCC4)s3)Oc3cc(-c4cnc([C@@H]5CCCN5C(=O)[C@@H](NC(=O)OC)C(C)C)[nH]4)cc(F)c3-2)[nH]1)C1C[C@@H](C)O[C@@H](C)C1 (single isomer, unassigned) [Compound 470] |  | 9.97 | 9.29 | 11.46 | 11.59 |  |
| COC(=O)NC(C(=O)N1[C@@H]2C[C@@H]2C[C@H]1c1ncc(-c2ccc3c(c2)cc2n3C(c3cnc(C4(C)CCCC4)s3)Oc3cc(-c4cnc([C@@H]5CCCN5C(=O)[C@@H](NC(=O)OC)C(C)C)[nH]4)cc(F)c3-2)[nH]1)C1C[C@@H](C)O[C@@H](C)C1 (single isomer, unassigned) [Compound 474] |  | 9.58 | 9.57 | 11.44 | 11.82 |  |
| COC(=O)NC(C(=O)N1[C@@H]2C[C@@H]2C[C@H]1c1ncc(-c2ccc3c(c2)cc2n3C(c3cnc(C4(C)CCCC4)s3)Oc3cc(-c4cnc([C@@H]5CCCN5C(=O)[C@@H](NC(=O)OC)C(C)C)[nH]4)cc(F)c3-2)[nH]1)C1CCOC(C)(C)C1 (single isomer, unassigned) [Compound 476] |  | 9.72 | 9.50 | 11.46 | 11.96 |  |
| COC(=O)N[C@H](C(=O)N1CCC[C@H]1c1ncc(-c2cc(F)c3c(c2)OC(c2cnc(C4CC4)s2)n2c-3c(C)c3cc(-c4cnc([C@@H]5CCCN5C(=O)[C@@H](NC(=O)OC)C(C)C)[nH]4)ccc32)[nH]1)C(C)C (single isomer, unassigned) [Compound 495] |  |  |  | 11.60 | 11.80 | pIC50 (HCV replicon 2B; replicon 2B, read-out: 2B IC50): 9.74; pIC50 (HCV replicon 1AY93H; [3]): 9.57 |
| COC(=O)N[C@H](C(=O)N1CCC[C@H]1c1ncc(-c2cc(F)c3c(c2)OC(c2nc4c(s2)CCC4)n2c-3cc3cc(-c4cnc([C@@H]5CCCN5C(=O)[C@@H](NC(=O)OC)C(C)C)[nH]4)ccc32)[nH]1)C(C)C (single isomer, unassigned) [Compound 504] | 11.62 | 8.78 | 8.78 |  |  | pIC50 (HCV replicon 1A; Hepatitis C virus): 11.59 |
| COC(=O)N[C@H](C(=O)N1CCC[C@H]1c1ncc(-c2cc(F)c3c(c2)OC(c2cnc(CC4CC4)s2)n2c-3cc3cc(-c4cnc([C@@H]5CCCN5C(=O)[C@@H](NC(=O)OC)C(C)C)[nH]4)ccc32)[nH]1)C(C)C (single isomer, unassigned) [Compound 509] |  |  |  | 11.55 | 11.70 | pIC50 (HCV replicon 2B; replicon 2B, read-out: 2B IC50): 10.74; pIC50 (HCV replicon 1AY93H; [3]): 10.85 |
| COC(=O)N[C@H](C(=O)N1CCC[C@H]1c1ncc(-c2cc(F)c3c(c2)OC(c2cnc(C4(C)CC4)s2)n2c-3cc3cc(-c4cnc([C@@H]5CCCN5C(=O)[C@@H](NC(=O)OC)C(C)C)[nH]4)ccc32)[nH]1)C(C)C (single isomer, unassigned) [Compound 512] |  | 9.11 | 9.46 | 11.41 | 11.07 |  |
| COC(=O)N[C@H](C(=O)N1CCC[C@H]1c1ncc(-c2cc(F)c3c(c2)OC(c2sc(C(C)C)nc2C)n2c-3cc3cc(-c4cnc([C@@H]5CCCN5C(=O)[C@@H](NC(=O)OC)C(C)C)[nH]4)ccc32)[nH]1)C(C)C (single isomer, unassigned) [Compound 515] | 11.54 |  |  |  |  | pIC50 (HCV replicon 1A; Hepatitis C virus): 11.89; IC50 (HCV replicon 2B): 1.84 nM; IC50 (HCV replicon 1AY93H): 4.45 nM |
| COC(=O)N[C@H](C(=O)N1CCC[C@H]1c1ncc(-c2cc(F)c3c(c2)OC(c2cnc(C4CCOCC4)s2)n2c-3cc3cc(-c4cnc([C@@H]5CCCN5C(=O)[C@@H](NC(=O)OC)C(C)C)[nH]4)ccc32)[nH]1)C(C)C (single isomer, unassigned) [Compound 532] |  | 8.93 | 8.75 | 11.44 | 11.89 |  |
| CCCc1ncc(C2Oc3cc(-c4cnc([C@@H]5CCCN5C(=O)[C@@H](NC(=O)OC)C(C)C)[nH]4)cc(F)c3-c3cc4cc(-c5cnc([C@@H]6CCCN6C(=O)[C@@H](NC(=O)OC)C(C)C)[nH]5)ccc4n32)s1 (stereo partly drawn) [Compound 16] |  | 9.55 | 10.08 | 12.00 | 11.77 |  |
| COC(=O)N[C@H](C(=O)N1CCC[C@H]1c1nc(-c2cc(F)c3c(c2)OC(c2cnc(C4CCCCC4)s2)n2c-3cc3cc(-c4cnc([C@@H]5CCCN5C(=O)[C@@H](NC(=O)OC)C(C)C)[nH]4)ccc32)c[nH]1)C(C)C (stereo partly drawn) [Compound 415] | 11.70 |  |  |  |  | pIC50 (HCV replicon 1A; Hepatitis C virus): 11.80; IC50 (HCV replicon 2B): 1.43 nM; IC50 (HCV replicon 1AY93H): 2.88 nM |
| COC(=O)N[C@H](C(=O)N1CCC[C@H]1c1ncc(-c2cc(F)c3c(c2)OC(c2cnc(C4CC4)s2)n2c-3cc3cc(-c4cnc([C@@H]5CC6(C)CC6N5C(=O)[C@@H](NC(=O)OC)C(C)C)[nH]4)ccc32)[nH]1)C(C)C (stereo partly drawn) [Compound 517] | 11.48 |  |  |  |  | pIC50 (HCV replicon 1A; Hepatitis C virus): 11.77; IC50 (HCV replicon 2B): 0.874 nM; IC50 (HCV replicon 1AY93H): 0.392 nM |
| COC(=O)NC(C(=O)N1C(c2ncc(-c3cc(F)c4c(c3)OC(c3cnc(C5CC5)s3)n3c-4cc4cc(-c5cnc(C6CC7(C)CC7N6C(=O)C(NC(=O)OC)C(C)C)[nH]5)ccc43)[nH]2)CC2(C)CC12)C(C)C (stereo not drawn) [Compound 533] |  |  |  | 10.71 | 10.58 | pIC50 (HCV replicon 1AQ30D; replicon 1AQ30D, read-out: 1A Q30D IC50): 8.60 |
